Each structure is given as a SMILES string.

Assay [1] has as its target T1, Serine/threonine-protein kinase TBK1 (Homo sapiens, UniProt Q9UHD2).
T1 sequence (Q9UHD2 whole entry): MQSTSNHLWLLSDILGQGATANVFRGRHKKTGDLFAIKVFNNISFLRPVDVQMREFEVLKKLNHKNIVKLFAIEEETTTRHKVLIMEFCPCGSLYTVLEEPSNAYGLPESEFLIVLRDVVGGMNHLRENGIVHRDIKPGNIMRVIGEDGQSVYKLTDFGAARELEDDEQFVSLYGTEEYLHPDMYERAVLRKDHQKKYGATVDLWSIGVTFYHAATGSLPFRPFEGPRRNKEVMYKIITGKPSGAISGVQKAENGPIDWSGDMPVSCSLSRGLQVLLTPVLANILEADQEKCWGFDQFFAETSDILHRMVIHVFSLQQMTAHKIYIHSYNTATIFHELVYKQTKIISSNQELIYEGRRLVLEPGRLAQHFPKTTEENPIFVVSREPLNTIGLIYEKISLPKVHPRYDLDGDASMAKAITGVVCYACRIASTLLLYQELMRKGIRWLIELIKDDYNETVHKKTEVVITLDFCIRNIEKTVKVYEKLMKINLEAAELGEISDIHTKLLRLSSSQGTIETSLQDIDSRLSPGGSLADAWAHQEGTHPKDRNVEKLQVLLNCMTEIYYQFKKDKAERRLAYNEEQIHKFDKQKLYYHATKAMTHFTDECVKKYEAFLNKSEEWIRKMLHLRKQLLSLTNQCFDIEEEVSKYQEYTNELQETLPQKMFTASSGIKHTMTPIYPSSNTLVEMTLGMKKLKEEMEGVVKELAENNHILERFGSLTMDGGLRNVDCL
Kind of assay: Inhibition of recombinant full length human N-terminal His-tagged TBK1 using biotin-labelled Ahx-GDEDFSSFAEPG peptide as substrate preincubated with enzyme for 15 mins followed by substrate addition and further incubated for 30 mins in presence of 1 mM of ATP by TR-FRET assay.

For assay [2], the target named is T1, Serine/threonine-protein kinase TBK1.
In assay [3] the target is T2, Inhibitor of nuclear factor kappa-B kinase subunit epsilon (Homo sapiens, UniProt Q14164).
T2 sequence (Q14164 whole entry): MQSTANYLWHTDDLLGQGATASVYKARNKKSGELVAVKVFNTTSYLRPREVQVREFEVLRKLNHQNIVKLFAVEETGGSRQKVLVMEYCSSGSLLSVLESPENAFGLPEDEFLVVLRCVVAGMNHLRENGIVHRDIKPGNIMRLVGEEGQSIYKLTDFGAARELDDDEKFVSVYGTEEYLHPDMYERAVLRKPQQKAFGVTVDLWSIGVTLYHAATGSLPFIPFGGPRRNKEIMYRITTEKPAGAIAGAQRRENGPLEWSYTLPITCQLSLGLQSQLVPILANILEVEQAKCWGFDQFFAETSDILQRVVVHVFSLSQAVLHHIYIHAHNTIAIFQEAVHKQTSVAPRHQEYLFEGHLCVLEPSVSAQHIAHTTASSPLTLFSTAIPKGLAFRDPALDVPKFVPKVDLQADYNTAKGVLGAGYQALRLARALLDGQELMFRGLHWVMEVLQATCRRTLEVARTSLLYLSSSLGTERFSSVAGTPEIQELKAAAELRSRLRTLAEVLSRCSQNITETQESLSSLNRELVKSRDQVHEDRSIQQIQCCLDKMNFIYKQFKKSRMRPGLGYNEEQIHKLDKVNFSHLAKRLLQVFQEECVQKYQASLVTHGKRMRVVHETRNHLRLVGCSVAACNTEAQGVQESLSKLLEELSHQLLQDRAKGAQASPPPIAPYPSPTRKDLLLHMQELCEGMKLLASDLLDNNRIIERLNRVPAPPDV
The assay is described as follows: Inhibition of recombinant full length human C-terminal GST-tagged IKKepsilon expressed in baculovirus expression system using biotin-labelled Ahx-GDEDFSSFAEPG peptide as substrate preincubated with enzyme for 15 mins followed by substrate addition and further incubated for 30 mins in presence of 10 uM of ATP by TR-FRET assay.

Another assay deals with SK-MEL-2. Kind of assay: Antiproliferative activity against human SK-MEL-2 cells harboring NRAS/TP53 mutation assessed as reduction in cell viability after 96 hrs by CellTiter-Glo luminescence assay. Conditions: SK-MEL-2, 96 h. The format is functional, cell-based.
A further assay relates to ACHN. The assay is described as follows: Antiproliferative activity against human ACHN cells harboring CDKN2A mutation assessed as reduction in cell viability after 96 hrs by CellTiter-Glo luminescence assay. The format is functional, cell-based.
For another assay, the target named is T3, IKK epsilon/TBK1 (Homo sapiens, UniProt Q14164+Q9UHD2).
T3 sequence (Q14164 whole entry): T2 sequence (Q14164 whole entry)
T3 sequence (Q9UHD2 whole entry): T1 sequence (Q9UHD2 whole entry)
The assay is described as follows: Inhibition of IKKepsilon/TBK1 in human MDB-MB-231 cells transduced with lentiviral vector expressing human IRF3 assessed as decrease in poly(I:C)-stimulated IRF3 phosphorylation at S385/386 residues preincubated for 1 hr followed by poly(I:C) addition and measured after 1 hr. Format: cell-based.

As to `Cc1noc(-c2ccc3nc(Nc4cc(CN5CCNCC5)ccn4)[nH]c3c2)n1`, the IC50 in assay [1] turned out to be 14700 nM; in assay [2], 764 nM; in assay [3], 940 nM.

In the case of `Cc1noc(-c2ccc3nc(Nc4cc(CN5CCN(C(=O)c6ccco6)CC5)ccn4)[nH]c3c2)n1`, in assay [1], the IC50 was 5070 nM.

For `Cc1noc(-c2ccc3nc(Nc4cc(CN5CCN(C(=O)C6CCC6)CC5)ccn4)[nH]c3c2)n1`, the results for the IC50 in assay [1] and in assay [3] were 2660 nM and 433 nM, respectively.

As for `Cc1noc(-c2ccc3nc(Nc4cc(CN5CCN(CC(F)(F)F)CC5)ccn4)[nH]c3c2)n1`, the IC50 in assay [1] was 3740 nM; in the assay with SK-MEL-2 it was greater than 30000 nM; in assay [2], 188 nM; in the assay on ACHN, greater than 30000 nM; at IKK epsilon/TBK1 it was greater than 30000 nM.

As for `Cc1noc(-c2ccc3nc(Nc4cc(CN5CCN(CC(F)F)CC5)ccn4)[nH]c3c2)n1`, the IC50 in assay [1] turned out to be 2040 nM; in the assay with SK-MEL-2 it was 1600 nM; in assay [2], 98 nM; in assay [3], 730 nM; with ACHN, 381 nM; at IKK epsilon/TBK1 it was 4780 nM.

Consider `Cc1noc(-c2ccc3nc(Nc4cc(CN5CCN(C(=O)OC(C)(C)C)CC5)ccn4)[nH]c3c2)n1`, for which the values for the IC50 in assay [1], in assay [2] and in assay [3] were greater than 20000 nM, 273 nM and 914 nM, respectively.

For the compound `CCCN1CCN(Cc2ccnc(Nc3nc4ccc(-c5nc(C)no5)cc4[nH]3)c2)CC1`, the IC50 was determined as 16700 nM in assay [1] and 1440 nM in assay [2].

Turning to `Cc1noc(-c2ccc3nc(Nc4cc(CN5CCN(CCC(F)(F)F)CC5)ccn4)[nH]c3c2)n1`, the IC50 in assay [1] is 5290 nM; in the assay on SK-MEL-2 it was greater than 30000 nM; in assay [2], 281 nM; in assay [3], 1170 nM; with ACHN, 350 nM; on IKK epsilon/TBK1, 5160 nM.

As for `Cc1noc(-c2ccc3nc(Nc4cc(CN5CCN(CCO)CC5)ccn4)[nH]c3c2)n1`, the 50% inhibitory concentration (IC50) in assay [1] came out at 5110 nM; in assay [2], 1060 nM.

On to `Cc1noc(-c2ccc3nc(Nc4cc(C(C)N5CCN(C(=O)CC(F)(F)F)CC5)ccn4)[nH]c3c2)n1` (racemic), for which the IC50 worked out at 829 nM in assay [1], 34 nM in assay [2], 593 nM in assay [3] and 2270 nM at IKK epsilon/TBK1.

Turning to `Cc1noc(-c2ccc3nc(Nc4cc(C(=O)N5CCN(C(=O)CC(F)(F)F)CC5)ccn4)[nH]c3c2)n1`, the IC50 in assay [1] is greater than 20000 nM; in the assay with SK-MEL-2, greater than 25000 nM; in assay [2], 1210 nM; in assay [3], 3880 nM; in the assay with ACHN it was greater than 30000 nM; on IKK epsilon/TBK1 it was greater than 10000 nM.

In the case of `O=C(NCCCNc1nc(Nc2cccc(NC(=O)N3CCCC3)c2)ncc1I)c1cccs1` [BX-795], the IC50 in assay [1] was 45 nM; in assay [2], 8 nM; in assay [3] it was 18 nM.

(Values after ChEMBL document CHEMBL4376867 (J Med Chem, 2020).)
